Experimental data from patent US11738022B2, “Methods for inducing pupil dilation” (THE REGENTS OF THE UNIVERSITY OF COLORADO, A BODY CORPORATE, priority 2017, dated 2023).

Experiments:
pupil = assay: Pupil dilation measured with Neuroptics pupillometer after α-2 agonist pre-treatment and/or phenylephrine; assay type: in vivo, human
Procedure: Dilation medication used was Phenylephrine hydrochloride 10% (Akorn, Inc). Pupillometer used was a Neuroptics DP-2000 Binocular Pupillometer).
Dilation using phenylephrine hydrochloride 10% was conducted in both eyes of the test subject to use as a control against the other compounds being tested.
After this, dilation using phenylephrine hydrochloride 2.5% or phenylephrine hydrochloride 10% was conducted to investigate the effects of the compound on pupil dilation.
Apracionidine 0.5% was administered in the right eye of the test subject three (3) times a day for 4 days. After this, dilation using phenylephrine hydrochloride 10% was conducted to investigate the effects of the compound on pupil dilation.
After this, dilation using phenylephrine hydrochloride 10% was conducted to investigate the effects of the compound on pupil dilation.
A washout period of multiple months was undertaken in between each experiment.
Pupil measurements were obtained using a Neuroptics pupillometer. Parameters were as follows: Scotopic conditions for 1 second, followed by photopic conditions for 4 seconds (1258.925 lux), followed by scotopic conditions for 10 seconds. This allowed for investigation of scotopic pupil size, photopic pupil size, and scotopic pupil size recovery after the light stimulus concluded.
The pupils of the subject's pretreated right eye and untreated control left eye were then measured under both scotopic and photopic conditions for baseline measurements (FIG. 6A). Photopic conditions consisted of a 4 second window where a light was shining in both eyes simultaneously. […]
The experiment was repeated at a higher dosage wherein the subject was administered a second ophthalmic formulation containing 10% phenylephrine to both eyes. 30 minutes after instillation of 10% phenylephrine, the pupils of the subject were then measured under both scotopic and photopic conditions (FIG. 6C). […] Because the area of a circle is dependent on the radius squared (area of a circle=πr^2), the increase in area that is created from a increasing the pupil dilation size is not linear.
The results were then compared.

α receptors (α2:α1) = settings: affinity ratio; cited from earlier work
[1] = after pre-treatment of right eye only, 3 times a day for 4 days, before phenylephrine
[2] = after pre-treatment of right eye only, 3 times a day for 4 days, before phenylephrine, left eye not treated
[3] = dilation pre and post treatment with α 2 agonist: treated eye vs control measurements of same eye
[4] = non-treated eye dilation compared to treated eye dilation
[5] = photopic conditions (1258.925 lux) after dilation with phenylephrine 10%
[6] = photopic conditions (1258.925 lux) after dilation with phenylephrine 10%, eye without pre-treatment
[7] = right eye pre-treated 3 times a day for 4 days, then phenylephrine 2.5% both eyes (FIG. 6B)
[8] = right eye pre-treated 3 times a day for 4 days, then phenylephrine 2.5% both eyes (FIG. 6B), left eye not pre-treated
[9] = right eye pre-treated 3 times a day for 4 days, then phenylephrine 10% both eyes
[10] = right eye pre-treated 3 times a day for 4 days, then phenylephrine 10% both eyes, left eye not pre-treated

Brc1c(NC2=NCCN2)ccc2nccnc12 [Brimonidine, brimonidine]
dilation speed of pretreated eye vs control eye on return to scotopic conditions (pupil; 30 minutes after 2.5% phenylephrine (FIG. 6B)): more rapidly
dilation speed of pretreated eye vs control eye upon removal of the light (pupil; 30 minutes after 10% phenylephrine (FIG. 6C)): more rapidly
average increase in dilation size in the pretreated eye compared to the control eye (pupil; 30 minutes after 10% phenylephrine both eyes (FIG. 6C)): 36%
dilation speed of pretreated eye upon return to scotopic conditions (pupil; after 4 days pre-treatment, before phenylephrine (FIG. 6A)): much more slowly
increase of surgical work area compared to the pre-treatment control dilation amount in the same eye (pupil; after dilation with phenylephrine hydrochloride 10%): approximately 103%
CH LStim Ave (pupil; [1]): 69%
CH RPupil Ave (pupil; [1]): 67%
CH RStim Ave (pupil; [1]): 69%
CH Right (pupil; [1]): 67%
CLAT LStim Ave (pupil; [1]): 0.17 s
CLAT RPupil Ave (pupil; [1]): 0.18 s
CLAT RStim Ave (pupil; [1]): 0.17 s
CLAT Right (pupil; [1]): 0.18 s
DELTA LStim Ave (pupil; [1]): 4.70 mm
DELTA RPupil Ave (pupil; [1]): 4.21 mm
DELTA RStim Ave (pupil; [1]): 4.70 mm
DV LStim Ave (pupil; [1]): 1.02 mm/s
DV RPupil Ave (pupil; [1]): 1.00 mm/s
DV RStim Ave (pupil; [1]): 1.02 mm/s
DV Right (pupil; [1]): 1.00 mm/s
MCV LStim Ave (pupil; [1]): 6.57 mm/s
MCV RPupil Ave (pupil; [1]): 6.76 mm/s
MCV RStim Ave (pupil; [1]): 6.57 mm/s
Max LStim Ave (pupil; [1]): 6.86 mm
Max RStim Ave (pupil; [1]): 6.86 mm
Max Right (pupil; [1]): 6.27 mm
Min LStim Ave (pupil; [1]): 2.16 mm
Min RPupil Ave (pupil; [1]): 2.06 mm
Min RStim Ave (pupil; [1]): 2.16 mm
Min Right (pupil; [1]): 2.06 mm
CH LPupil Ave (pupil; [2]): 70%
CH Left (pupil; [2]): 70%
CLAT LPupil Ave (pupil; [2]): 0.17 s
CLAT Left (pupil; [2]): 0.17 s
DELTA Left (pupil; [2]): 5.21 mm
DV Left (pupil; [2]): 1.05 mm/s
MCV Left (pupil; [2]): 6.38 mm/s
Max Left (pupil; [2]): 7.46 mm
Min Left (pupil; [2]): 2.25 mm
Pupil size change (%) (pupil; [3]): +42.62%
Surgical work area change (%) (pupil; [3]): +103.4%
Pupil size change (%) (pupil; [4]): +35.81%
Surgical work area (%) (pupil; [4]): +84.44%
Pupil size, Treated eye (pupil; [5]): 5.12 mm
Surgical Work area, Treated eye (pupil; [5]): 20.58 mm^2
Pupil size, Non-treated eye (pupil; [6]): 3.77 mm
Surgical Work area, Non-treated eye (pupil; [6]): 11.16 mm^2
dilation of pretreated eye vs control eye (pupil; photopic conditions, 30 minutes after 2.5% phenylephrine (FIG. 6B)): more dilated
dilation of pretreated eye vs control eye (pupil; photopic conditions, 30 minutes after 10% phenylephrine (FIG. 6C)): much more dilated
pupil area, pre-treated eye (pupil; photopic conditions, after 10% phenylephrine (FIG. 6C)): 20.59 mm^2
pupil area, control eye (pupil; photopic conditions, after 10% phenylephrine (FIG. 6C), eye without pre-treatment): 11.16 mm^2
increase in surgical workspace (pupil; pre-treated vs control eye, photopic conditions, after 10% phenylephrine): ~85%
CH LStim Ave (pupil; [7]): 64%
CH RPupil Ave (pupil; [7]): 61%
CH RStim Ave (pupil; [7]): 64%
CH Right (pupil; [7]): 61%
CLAT LStim Ave (pupil; [7]): 0.19 s
CLAT RPupil Ave (pupil; [7]): 0.19 s
CLAT RStim Ave (pupil; [7]): 0.19 s
CLAT Right (pupil; [7]): 0.19 s
DELTA LStim Ave (pupil; [7]): 4.98 mm
DELTA RPupil Ave (pupil; [7]): 4.70 mm
DELTA RStim Ave (pupil; [7]): 4.98 mm
DV LStim Ave (pupil; [7]): 1.36 mm/s
DV RPupil Ave (pupil; [7]): 1.39 mm/s
DV RStim Ave (pupil; [7]): 1.36 mm/s
DV Right (pupil; [7]): 1.39 mm/s
MCV LStim Ave (pupil; [7]): 6.06 mm/s
MCV RPupil Ave (pupil; [7]): 5.40 mm/s
MCV RStim Ave (pupil; [7]): 6.06 mm/s
Max LStim Ave (pupil; [7]): 7.73 mm
Max RStim Ave (pupil; [7]): 7.73 mm
Max Right (pupil; [7]): 7.69 mm
Min LStim Ave (pupil; [7]): 2.75 mm
Min RPupil Ave (pupil; [7]): 2.99 mm
Min RStim Ave (pupil; [7]): 2.75 mm
Min Right (pupil; [7]): 2.99 mm
CH LPupil Ave (pupil; [8]): 68%
CH Left (pupil; [8]): 68%
CLAT LPupil Ave (pupil; [8]): 0.19 s
CLAT Left (pupil; [8]): 0.19 s
DELTA Left (pupil; [8]): 5.26 mm
DV Left (pupil; [8]): 1.33 mm/s
MCV Left (pupil; [8]): 6.71 mm/s
Max Left (pupil; [8]): 7.77 mm
Min Left (pupil; [8]): 2.51 mm
CH LStim Ave (pupil; [9]): 52%
CH RPupil Ave (pupil; [9]): 46%
CH RStim Ave (pupil; [9]): 52%
CH Right (pupil; [9]): 46%
CLAT LStim Ave (pupil; [9]): 0.22 s
CLAT RPupil Ave (pupil; [9]): 0.20 s
CLAT RStim Ave (pupil; [9]): 0.22 s
CLAT Right (pupil; [9]): 0.20 s
DELTA LStim Ave (pupil; [9]): 4.74 mm
DELTA RPupil Ave (pupil; [9]): 4.28 mm
DELTA RStim Ave (pupil; [9]): 4.74 mm
DV LStim Ave (pupil; [9]): 1.06 mm/s
DV RPupil Ave (pupil; [9]): 1.09 mm/s
DV RStim Ave (pupil; [9]): 1.06 mm/s
DV Right (pupil; [9]): 1.09 mm/s
MCV LStim Ave (pupil; [9]): 4.22 mm/s
MCV RPupil Ave (pupil; [9]): 4.20 mm/s
MCV RStim Ave (pupil; [9]): 4.22 mm/s
Max LStim Ave (pupil; [9]): 9.18 mm
Max RStim Ave (pupil; [9]): 9.18 mm
Max Right (pupil; [9]): 9.40 mm
Min LStim Ave (pupil; [9]): 4.44 mm
Min RPupil Ave (pupil; [9]): 5.12 mm
Min RStim Ave (pupil; [9]): 4.44 mm
Min Right (pupil; [9]): 5.12 mm
CH LPupil Ave (pupil; [10]): 58%
CH Left (pupil; [10]): 58%
CLAT LPupil Ave (pupil; [10]): 0.24 s
CLAT Left (pupil; [10]): 0.24 s
DELTA Left (pupil; [10]): 5.19 mm
DV Left (pupil; [10]): 1.04 mm/s
MCV Left (pupil; [10]): 4.25 mm/s
Max Left (pupil; [10]): 8.96 mm
Min Left (pupil; [10]): 3.77 mm
dilation of pretreated eye vs control eye (pupil; scotopic and photopic conditions, after 4 days pre-treatment, before phenylephrine (FIG. 6A)): less dilated
dilation of pretreated eye vs control eye (pupil; scotopic conditions, 30 minutes after 2.5% phenylephrine (FIG. 6B)): equally dilated
dilation of pretreated eye vs control eye (pupil; scotopic conditions, 30 minutes after 10% phenylephrine (FIG. 6C)): more dilated
α2:α1 affinity (α receptors (α2:α1)): 976
